Laboratory results reported in patent publication US10544143B2, “4-azaindole compounds” (BRISTOL-MYERS SQUIBB COMPANY, priority 2017, dated 2020).
Where two headings read alike, the source gives them in different places.

How the values were obtained:
human TLR7 = human TLR7 (Homo sapiens (Human), UniProt Q9NYK1); assay: TLR7 inhibition reporter assay (HEK-Blue SEAP); format: cell-based
human TLR8 = human TLR8 (Homo sapiens (Human), UniProt Q9NR97); assay: TLR8 inhibition reporter assay (HEK-Blue SEAP); conditions: read-out: TLR8 IC50;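 also: SEAP driven by IFN-β minimal promoter carrying NF-κB and AP-1 sites, compounds dosed 0.05 nM to 50 µM for 22 h, inhibition scaled between agonist-plus-DMSO and reference-inhibitor wells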
human TLR9 = human TLR9 (Homo sapiens (Human), UniProt Q9NR96); assay: TLR9 inhibition reporter assay (HEK-Blue SEAP); conditions: read-out: TLR9 IC50;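 also: SEAP driven by an IFN-β minimal promoter with NF-κB and AP-1 sites, read after 22 h, compounds dosed 0.05 nM–50 µM, inhibition scaled between agonist plus DMSO and reference-inhibitor wells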
[1] = HEK-Blue cells overexpressing human TLR7, gardiquimod 7.5 μM stimulation, SEAP reporter
[2] = HEK-Blue cells overexpressing human TLR8, R848 15.9 μM stimulation, SEAP reporter
[3] = HEK-Blue cells overexpressing human TLR9, ODN2006 5 nM stimulation, SEAP reporter
[4] = HEK-Blue cells overexpressing human TLR7, SEAP reporter, gardiquimod 7.5 μM
[5] = HEK-Blue cells overexpressing human TLR8, SEAP reporter, R848 15.9 μM
[6] = HEK-Blue cells overexpressing human TLR9, SEAP reporter, ODN2006 5 nM
[7] = HEK-Blue human TLR7 cells, gardiquimod 7.5 μM
[8] = HEK-Blue human TLR8 cells, R848 15.9 μM
[9] = HEK-Blue human TLR9 cells, ODN2006 5 nM

human TLR9, sequence (Q9NR96 26-1032): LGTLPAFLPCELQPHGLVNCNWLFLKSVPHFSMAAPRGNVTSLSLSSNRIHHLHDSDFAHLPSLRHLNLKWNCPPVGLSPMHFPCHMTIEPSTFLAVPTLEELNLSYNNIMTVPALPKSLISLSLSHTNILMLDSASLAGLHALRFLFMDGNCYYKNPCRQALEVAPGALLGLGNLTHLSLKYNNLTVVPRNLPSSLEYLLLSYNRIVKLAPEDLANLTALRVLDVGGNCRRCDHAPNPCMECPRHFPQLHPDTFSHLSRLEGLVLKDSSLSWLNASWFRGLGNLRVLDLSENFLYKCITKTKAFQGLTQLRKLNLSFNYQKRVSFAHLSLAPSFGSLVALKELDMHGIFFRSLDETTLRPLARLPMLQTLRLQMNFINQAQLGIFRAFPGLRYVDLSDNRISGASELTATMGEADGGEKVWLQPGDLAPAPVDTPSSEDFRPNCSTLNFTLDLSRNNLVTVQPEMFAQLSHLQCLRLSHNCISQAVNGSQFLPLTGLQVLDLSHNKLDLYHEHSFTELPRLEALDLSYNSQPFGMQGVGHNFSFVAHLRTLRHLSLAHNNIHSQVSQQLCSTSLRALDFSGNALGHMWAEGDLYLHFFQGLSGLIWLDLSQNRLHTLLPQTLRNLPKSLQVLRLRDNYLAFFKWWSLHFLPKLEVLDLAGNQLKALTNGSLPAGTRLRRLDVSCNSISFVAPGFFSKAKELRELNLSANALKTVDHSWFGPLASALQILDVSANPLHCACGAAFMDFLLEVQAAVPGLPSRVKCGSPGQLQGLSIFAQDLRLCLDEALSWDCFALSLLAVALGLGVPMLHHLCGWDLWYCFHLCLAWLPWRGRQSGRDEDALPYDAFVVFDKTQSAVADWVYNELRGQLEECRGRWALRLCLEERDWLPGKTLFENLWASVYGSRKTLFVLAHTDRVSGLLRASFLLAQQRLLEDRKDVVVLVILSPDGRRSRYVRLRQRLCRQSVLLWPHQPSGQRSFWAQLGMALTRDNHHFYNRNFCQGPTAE
human TLR8, sequence (Q9NR97 27-1041): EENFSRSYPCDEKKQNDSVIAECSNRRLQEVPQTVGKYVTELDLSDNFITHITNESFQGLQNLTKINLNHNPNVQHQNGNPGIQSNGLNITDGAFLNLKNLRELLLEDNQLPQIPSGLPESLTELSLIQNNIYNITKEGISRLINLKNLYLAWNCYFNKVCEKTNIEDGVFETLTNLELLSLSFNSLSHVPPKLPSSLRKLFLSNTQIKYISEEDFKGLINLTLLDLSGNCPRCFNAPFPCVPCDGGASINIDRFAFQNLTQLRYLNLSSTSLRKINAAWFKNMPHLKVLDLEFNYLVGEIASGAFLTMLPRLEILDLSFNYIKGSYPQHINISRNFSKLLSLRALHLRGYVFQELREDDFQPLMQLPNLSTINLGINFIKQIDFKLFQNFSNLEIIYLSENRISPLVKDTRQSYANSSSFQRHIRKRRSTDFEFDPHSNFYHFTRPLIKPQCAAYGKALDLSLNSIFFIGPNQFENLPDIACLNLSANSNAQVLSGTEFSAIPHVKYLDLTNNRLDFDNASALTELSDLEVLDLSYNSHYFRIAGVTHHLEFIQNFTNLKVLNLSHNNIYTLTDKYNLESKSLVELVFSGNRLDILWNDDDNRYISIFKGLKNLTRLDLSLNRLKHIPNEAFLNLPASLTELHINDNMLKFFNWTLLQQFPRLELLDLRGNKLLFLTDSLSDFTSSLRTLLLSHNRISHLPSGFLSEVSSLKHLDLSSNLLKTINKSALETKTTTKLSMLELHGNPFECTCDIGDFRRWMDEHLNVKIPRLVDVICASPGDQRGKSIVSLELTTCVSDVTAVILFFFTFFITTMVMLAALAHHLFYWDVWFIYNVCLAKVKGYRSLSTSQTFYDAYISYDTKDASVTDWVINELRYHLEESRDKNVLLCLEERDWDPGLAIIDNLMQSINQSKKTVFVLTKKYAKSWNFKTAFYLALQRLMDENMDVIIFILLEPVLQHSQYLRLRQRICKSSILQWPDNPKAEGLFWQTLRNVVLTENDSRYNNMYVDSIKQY
human TLR7, sequence (Q9NYK1 27-1049): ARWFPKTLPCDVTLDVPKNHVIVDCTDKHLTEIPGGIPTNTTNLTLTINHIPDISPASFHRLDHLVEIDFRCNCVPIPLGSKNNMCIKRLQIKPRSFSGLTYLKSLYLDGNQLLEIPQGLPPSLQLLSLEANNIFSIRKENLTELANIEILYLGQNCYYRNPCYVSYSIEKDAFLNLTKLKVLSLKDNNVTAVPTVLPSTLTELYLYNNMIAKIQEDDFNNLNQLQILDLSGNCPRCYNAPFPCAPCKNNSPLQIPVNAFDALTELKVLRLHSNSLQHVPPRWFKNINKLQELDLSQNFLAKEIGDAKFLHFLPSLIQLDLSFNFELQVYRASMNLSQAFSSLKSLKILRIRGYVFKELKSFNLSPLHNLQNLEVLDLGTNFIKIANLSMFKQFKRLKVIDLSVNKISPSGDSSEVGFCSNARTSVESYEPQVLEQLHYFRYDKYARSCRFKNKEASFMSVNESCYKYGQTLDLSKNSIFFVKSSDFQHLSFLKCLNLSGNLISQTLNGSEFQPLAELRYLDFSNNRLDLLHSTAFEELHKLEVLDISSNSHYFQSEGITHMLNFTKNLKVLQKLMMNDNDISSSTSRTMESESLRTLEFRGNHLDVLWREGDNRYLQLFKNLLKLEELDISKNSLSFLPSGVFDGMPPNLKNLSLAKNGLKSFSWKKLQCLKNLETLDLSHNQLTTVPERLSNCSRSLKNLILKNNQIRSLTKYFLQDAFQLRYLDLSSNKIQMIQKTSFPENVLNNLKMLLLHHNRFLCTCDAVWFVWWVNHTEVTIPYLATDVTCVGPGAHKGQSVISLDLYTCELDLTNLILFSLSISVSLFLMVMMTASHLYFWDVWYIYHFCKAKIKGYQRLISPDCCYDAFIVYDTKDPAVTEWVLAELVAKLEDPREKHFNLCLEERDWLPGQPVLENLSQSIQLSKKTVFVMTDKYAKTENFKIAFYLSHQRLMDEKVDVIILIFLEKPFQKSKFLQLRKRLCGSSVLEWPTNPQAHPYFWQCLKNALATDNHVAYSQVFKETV

SMILES	IC50 (human TLR7; [1]) [nM]	IC50 (human TLR8; [2]) [nM]	IC50 (human TLR9; [3]) [nM]	IC50 (human TLR7; [4]) [nM]	IC50 (human TLR8; [5]) [nM]	IC50 (human TLR9; [6]) [nM]	other results
COc1cc(-c2[nH]c3ccc(C4CCC(NCc5cnco5)CC4)nc3c2C(C)C)cn2ncnc12 (stereo not drawn) [Example 206]	9.5	22	2390				
COc1cc(-c2[nH]c3ccc(C4CCC(N(C)Cc5ncccn5)CC4)nc3c2C(C)C)cn2ncnc12 (stereo not drawn) [Example 208]	2.2	16	1350				
CC(C)c1c(-c2cc(CO)c3ncnn3c2)[nH]c2ccc(N3CCC(NCC(=O)N(C)C)CC3)nc12 [Example 85]	1.8	5.8	5180				
COc1cc(-c2[nH]c3ccc(C4CCC(N5CC6(CCO6)C5)CC4)nc3c2C(C)C)cn2ncnc12 (stereo not drawn) [Example 1075]							IC50 (human TLR7; [7]): 1.8 nM; IC50 (human TLR8; [8]): 11 nM; IC50 (human TLR9; [9]): 3350 nM
CC(C)c1c(-c2cc(CO)c3ncnn3c2)[nH]c2ccc(N3CCC(N)CC3)nc12 [Example 79]	373	355	9720				
COc1cc(-c2[nH]c3ccc(C4CCC(NCc5cnc(C)cn5)CC4)nc3c2C(C)C)cn2ncnc12 (stereo not drawn) [Example 196]	1.7	10	712				
COc1cc(-c2[nH]c3ccc(N4CCN(CCC(C)(C)C)CC4)nc3c2C(C)C)cn2ncnc12 [Example 114]	4.7	1.8	7590				
Cc1c(-c2[nH]c3ccc(N4CCC(NCC5(S(C)(=O)=O)CC5)C4)nc3c2C(C)C)cn2ncnc2c1C (stereo not drawn) [Example 165]	11	0.68	22700				
CC(C)c1c(-c2cc(CO)c3ncnn3c2)[nH]c2ccc(C3CCC(NC4COC4)CC3)nc12 (stereo not drawn) [Example 235]	1	2	929				
COc1cc(-c2[nH]c3ccc(N4CC(N(C)C)C4)nc3c2C(C)C)cn2ncnc12 [Example 13]	3.2	1.9	5020				
Cc1c(-c2[nH]c3ccc(N4C[C@@H](C)N(C(=O)CCN(C)C)C[C@H]4C)nc3c2C(C)C)cn2ncnc2c1C [Example 797]							IC50 (human TLR7; [7]): 10 nM; IC50 (human TLR8; [8]): 14 nM; IC50 (human TLR9; [9]): 17600 nM
COc1cc(-c2[nH]c3ccc(C4CCC(N(C)CCC#N)CC4)nc3c2C(C)C)cn2ncnc12 (stereo not drawn) [Example 166]	1.5	18	2190				
Cc1c(-c2[nH]c3ccc(N4CCN(C(=O)CNC(C)C)C[C@H]4C)nc3c2C(C)C)cn2ncnc2c1C [Example 837]							IC50 (human TLR7; [7]): 0.7 nM; IC50 (human TLR8; [8]): 1.6 nM; IC50 (human TLR9; [9]): 7820 nM

Continued, in another order:

IC50 (human TLR7; [1]) [nM]	IC50 (human TLR8; [2]) [nM]	IC50 (human TLR9; [3]) [nM]	IC50 (human TLR7; [4]) [nM]	IC50 (human TLR8; [5]) [nM]	IC50 (human TLR9; [6]) [nM]	SMILES	other results
			49	15	1750	Cc1c(-c2[nH]c3ccc(CCC4CN(CC(C)(C)O)C4)nc3c2C(C)C)cn2ncnc2c1C [Example 701]	
			0.81	2.6	9750	Cc1c(-c2[nH]c3ccc(C4CCC(N(C)CC5(S(C)(=O)=O)CC5)CC4)nc3c2C(C)C)cn2ncnc2c1C (stereo not drawn) [Example 476]	
			2.7	4.8	3050	COc1cc(-c2[nH]c3ccc(OCC4CN(CC(C)(C)O)C4)nc3c2C(C)C)cn2ncnc12 [Example 599]	
			1.5	2.5	2860	COc1cc(-c2[nH]c3ccc(C4CCN(CCS(C)(=O)=O)CC4)nc3c2C(C)C)cn2ncnc12 [Example 554]	
			16	5.8	20700	Cc1cc(-c2[nH]c3ccc(C4CNCCO4)nc3c2C(C)C)cn(C)c1=O (stereo not drawn) [Example 679]	
			6.2	28	4880	COc1cc(-c2[nH]c3ccc(C4CCC(N(CC#N)CC#N)C4)nc3c2C(C)C)cn2ncnc12 (stereo not drawn) [Example 713]	
			14	5.3	2280	Cc1c(-c2[nH]c3ccc(C4CCN(C5CCOCC5)CC4)nc3c2C(C)C)cn(C)c(=O)c1C [Example 543]	
120	40	228				CC(C)c1c(-c2cn(CCS(C)(=O)=O)c3ncccc23)[nH]c2ccc(C3CCC(NC4CCCOC4)CC3)nc12 (stereo not drawn) [Example 271]	
			11	13	166	CC(C)c1c(-c2cn(C)c3ncccc23)[nH]c2ccc(CCC3CN(Cc4c[nH]nn4)C3)nc12 [Example 704]	
6	14	4360				C#CCNC1CCC(c2ccc3[nH]c(-c4cn5ncnc5c(C)c4C)c(C(C)C)c3n2)CC1 (stereo not drawn) [Example 371]	
